Results taken from patent US12239711B2, “Cereblon ligands and bifunctional compounds comprising the same” (Arvinas Operations, Inc., priority 2014, dated 2025).

System: androgen receptor (AR)
Assay: AR ELISA assay in LNCaP and/or VCaP cells
Assay type: cell-based
Details: 5 hours
Description: 4. AR ELISA Assay Protocol for Table 6
Compounds were evaluated in this assay in LNCaP and/or VCaP cells utilizing similar protocols. The protocols used with VCaP cells are described below. The androgen receptor ELISA assay was performed using PathScani AR Sandwich ELISA (Cell Signaling Catalog #12850) according to the following assay steps:
VCaP cells were seeded at 40,000 cells/well at a volume of 100 μL/well in VCaP assay medium [Phenol red free RPMI (Gibco Cat #11835-030); 5% Charcoal Stripped (Dextran treated) FBS (Omega Scientific, Cat #FB-04); 1% penstrep (Life Technologies, Gibco Cat #: 10378-016)] in Corning 3904 plates. The cells were incubated for a minimum of 3 days. Cells were dosed with PROTACs diluted in 0.01% DMSO and the drug treatment was allowed for 5 hours.
AR ELISA (Cell Signaling) was performed as follows: 1× Cell Signaling Cell lysis buffer was made (Catalogue #9803; comes with the kit). Media from the treated wells is aspirated, and 100 μL 1× cell lysis buffer/well is added. The cells were placed on a shaker for 10 minutes at 4° C. Twenty microliters of lysate was transferred to 100 μl of Diluent in ELISA plate (0.15 μg/ml-0.075 μg/ml). The lysate-diluent mixture was shaken for 30 minutes at 37° C. Allow mouse AR antibody, anti-mouse antibody, TMB, and STOP solution to come to room temperature. The 1× ELISA buffer included in kit was made and loaded in the reservoir. Media from the plates was discarded, the ELISA plate tapped hard on paper towel, and washed 4×200 μl ELISA wash buffer using a plate washer.
One-hundred (100) μL/well of mouse AR detection Ab was added; the plates were covered and shaken at 37° C. for 1 hour; media was discarded from the plates, the plates were tapped on a paper towel, washed 4× with 200 μL ELISA wash buffer with a plate washer.
One-hundred (100) μL/well of anti-mouse—HRP conjugated Ab (comes with the kit) was added; the plates were covered and shaken at 37° C. for 30 minutes; the TMB reagent was allowed to come to room temperature; the media was discard from the plate, the plates were tapped on paper towl, washed 4× with 200 μL of ELISA wash buffer; the plates were tapped the plates on paper towl. One-hundred (100) μL of TMB was added and the plates shaken for 2 minutes—while watching for color development. One-hundred (100) μL Stop solution was added when light blue color developed. Plates were shaken and read at 450 nm.
Progression of prostate cancer in patients treated with anti-androgen therapy usually involves one of several mechanisms of enhanced Androgen Receptor (AR) signaling, including increased intratumoral androgen synthesis, increased AR expression and AR mutations. PROTACs (PROteolysis TArgeting Chimera), which use bi-functional molecules that simultaneously bind a target of choice and an E3 ligase, cause ubiquitination via induced proximity and degradation of the targeted, pathological protein. As opposed to traditional target inhibition, which is a competitive process, degradation is a progressive process. As such, it is less susceptible to increases in endogenous ligand, target expression, or mutations in the target. Thus, this technology appears to be ideal for addressing the mechanisms of AR resistance in patients with prostate cancer. Data was analyzed and plotted using GraphPad Prism software.

SMILES	DC50 [nM]	AR Dmax
COc1cc(N2CCN(CC3CCN(c4ccc(C(=O)N[C@H]5CC[C@H](Oc6ccc(C#N)c(Cl)c6)CC5)nn4)CC3)CC2)cc2c1C(=O)N(C1CCC(=O)NC1=O)C2=O (mixture of isomers) [compound 32, rac-N-((1r,4r)-4-(3-chloro-4-cyanophenoxy)cyclohexyl)-6-(4-((4-(2-(2,6-dioxopiperidin-3-yl)-7-methoxy-1,3-dioxoisoindolin-5-yl)piperazin-1-yl)methyl)piperidin-1-yl)pyridazine-3-carboxamide]	< 1	
COc1cc(N2CCN(CC3CCN(c4ncc(C(=O)N[C@H]5C(C)(C)[C@H](Oc6ccc(C#N)c(Cl)c6)C5(C)C)cn4)CC3)CC2)cc2c1C(=O)N(C1CCC(=O)NC1=O)C2=O (mixture of isomers) [compound 33, rac-N-((1r,3r)-3-(3-chloro-4-cyanophenoxy)-2,2,4,4-tetramethylcyclobutyl)-2-(4-((4-(2-(2,6-dioxopiperidin-3-yl)-7-methoxy-1,3-dioxoisoindolin-5-yl)piperazin-1-yl)methyl)piperidin-1-yl)pyrimidine-5-carboxamide]	< 1	
CC1(C)[C@H](NC(=O)c2ccc(N3CCC(CN4CCN(c5ccc6c(c5)C5(CC5)N(C5CCC(=O)NC5=O)C6=O)CC4)CC3)cc2)C(C)(C)[C@H]1Oc1ccc(C#N)c(Cl)c1 (mixture of isomers) [compound 34, rac-N-((1r,3r)-3-(3-chloro-4-cyanophenoxy)-2,2,4,4-tetramethylcyclobutyl)-4-(4-((4-(2′-(2,6-dioxopiperidin-3-yl)-3′-oxospiro[cyclopropane-1,1′-isoindolin]-6′-yl)piperazin-1-yl)methyl)piperidin-1-yl)benzamide]		C (C < 50)
CC(C)N(CC1CCN(c2cnc(C(=O)N[C@H]3CC[C@H](Oc4ccc(C#N)c(Cl)c4)CC3)cn2)CC1)[C@H]1C[C@H](Oc2ccc3c(c2)C(=O)N(C2CCC(=O)NC2=O)C32CC2)C1 (mixture of isomers) [compound 35, rac-N-((1r,4r)-4-(3-chloro-4-cyanophenoxy)cyclohexyl)-5-(4-((((1r,3r)-3-((2′-(2,6-dioxopiperidin-3-yl)-3′-oxospiro[cyclopropane-1,1′-isoindolin]-5′-yl)oxy)cyclobutyl)(isopropyl)amino)methyl)piperidin-1-yl)pyrazine-2-carboxamide]		C (C < 50)
CC(C)N(CC1CCN(c2cnc(C(=O)N[C@H]3CC[C@H](Oc4ccc(C#N)c(Cl)c4)CC3)cn2)CC1)[C@H]1C[C@H](Oc2ccc3c(c2)C2(CC2)N(C2CCC(=O)NC2=O)C3=O)C1 (mixture of isomers) [compound 36, rac-N-((1r,4r)-4-(3-chloro-4-cyanophenoxy)cyclohexyl)-5-(4-((((1r,3r)-3-((2′-(2,6-dioxopiperidin-3-yl)-3′-oxospiro[cyclopropane-1,1′-isoindolin]-6′-yl)oxy)cyclobutyl)(isopropyl)amino)methyl)piperidin-1-yl)pyrazine-2-carboxamide]		C (C < 50)
CC(C)N(CC1CCN(c2cnc(C(=O)N[C@H]3C(C)(C)[C@H](Oc4ccc(C#N)c(Cl)c4)C3(C)C)cn2)CC1)[C@H]1C[C@H](Oc2ccc3c(c2)C(=O)N(C2CCC(=O)NC2=O)C32CC2)C1 (mixture of isomers) [compound 37, rac-N-((1r,3r)-3-(3-chloro-4-cyanophenoxy)-2,2,4,4-tetramethylcyclobutyl)-5-(4-((((1r,3r)-3-((2′-(2,6-dioxopiperidin-3-yl)-3′-oxospiro[cyclopropane-1,1′-isoindolin]-5′-yl)oxy)cyclobutyl)(isopropyl)amino)methyl)piperidin-1-yl)pyrazine-2-carboxamide]		C (C < 50)
CC(C)N(CC1CCN(c2cnc(C(=O)N[C@H]3C(C)(C)[C@H](Oc4ccc(C#N)c(Cl)c4)C3(C)C)cn2)CC1)[C@H]1C[C@H](Oc2ccc3c(c2)C2(CC2)N(C2CCC(=O)NC2=O)C3=O)C1 (mixture of isomers) [compound 38, rac-N-((1r,3r)-3-(3-chloro-4-cyanophenoxy)-2,2,4,4-tetramethylcyclobutyl)-5-(4-((((1r,3r)-3-((2′-(2,6-dioxopiperidin-3-yl)-3′-oxospiro[cyclopropane-1,1′-isoindolin]-6′-yl)oxy)cyclobutyl)(isopropyl)amino)methyl)piperidin-1-yl)pyrazine-2-carboxamide]		C (C < 50)
CC1(C)[C@H](NC(=O)c2ccc(N3CCN(CCCCCOc4ccc5c(c4)CCN(C4CCC(=O)NC4=O)C5=O)CC3)nc2)C(C)(C)[C@H]1Oc1ccc(C#N)c(Cl)c1 (mixture of isomers) [compound 46, N-((1r,3r)-3-(3-chloro-4-cyanophenoxy)-2,2,4,4-tetramethylcyclobutyl)-6-(4-(5-(2-(2,6-dioxopiperidin-3-yl)-1-oxo-1,2,3,4-tetrahydroisoquinolin-6-yloxy)pentyl)piperazin-1-yl)nicotinamide]	< 1	A (A >= 75)
CC1(C)[C@H](NC(=O)c2ccc(N3CCN(CCCCCOc4ccc5c(c4)CC(=O)N(C4CCC(=O)NC4=O)C5=O)CC3)nc2)C(C)(C)[C@H]1Oc1ccc(C#N)c(Cl)c1 (mixture of isomers) [compound 47, N-((1r,3r)-3-(3-chloro-4-cyanophenoxy)-2,2,4,4-tetramethylcyclobutyl)-6-(4-(5-((2-(2,6-dioxopiperidin-3-yl)-1,3-dioxo-1,2,3,4-tetrahydroisoquinolin-6-yl)oxy)pentyl)piperazin-1-yl)nicotinamide]	1 to 10	B (50 <= B < 75)
CC1(C)[C@H](NC(=O)c2ccc(N3CCN(CCCCCOc4ccn5c(=O)n(C6CCC(=O)NC6=O)nc5c4)CC3)nc2)C(C)(C)[C@H]1Oc1ccc(C#N)c(Cl)c1 (mixture of isomers) [compound 48, N-((1r,3r)-3-(3-chloro-4-cyanophenoxy)-2,2,4,4-tetramethylcyclobutyl)-6-(4-(5-((2-(2,6-dioxopiperidin-3-yl)-3-oxo-2,3-dihydro-[1,2,4]triazolo[4,3-a]pyridin-7-yl)oxy)pentyl)piperazin-1-yl)nicotinamide]	< 1	B (50 <= B < 75)
CC1(C)[C@H](NC(=O)c2ccc(N3CCN(CCCCCOc4ccc5nn(C6CCC(=O)NC6=O)c(=O)n5c4)CC3)nc2)C(C)(C)[C@H]1Oc1ccc(C#N)c(Cl)c1 (mixture of isomers) [compound 49, N-((1r,3r)-3-(3-chloro-4-cyanophenoxy)-2,2,4,4-tetramethylcyclobutyl)-6-(4-(5-((2-(2,6-dioxopiperidin-3-yl)-3-oxo-2,3-dihydro-[1,2,4]triazolo[4,3-a]pyridin-6-yl)oxy)pentyl)piperazin-1-yl)nicotinamide]	< 1	A (A >= 75)
CC1(C)[C@H](NC(=O)c2ccc(N3CCC(CN4CCN(c5ccn6c(=O)n(C7CCC(=O)NC7=O)nc6c5)CC4)CC3)cc2)C(C)(C)[C@H]1Oc1ccc(C#N)c(Cl)c1 (mixture of isomers) [compound 50, N-((1r,3r)-3-(3-chloro-4-cyanophenoxy)-2,2,4,4-tetramethylcyclobutyl)-4-(4-((4-(2-(2,6-dioxopiperidin-3-yl)-3-oxo-2,3-dihydro-[1,2,4]triazolo[4,3-a]pyridin-7-yl)piperazin-1-yl)methyl)piperidin-1-yl)benzamide]	< 1	A (A >= 75)
CC1(C)[C@H](NC(=O)c2ccc(N3CCC(CCN4CCN(c5cc6c(cn5)C(=O)N(C5CCC(=O)NC5=O)C6=O)CC4)CC3)cc2)C(C)(C)[C@H]1Oc1ccc(C#N)c(Cl)c1 (mixture of isomers) [compound 51, rac-N-((1r,3r)-3-(3-chloro-4-cyanophenoxy)-2,2,4,4-tetramethylcyclobutyl)-4-(4-(2-(4-(2-(2,6-dioxopiperidin-3-yl)-1,3-dioxo-2,3-dihydro-1H-pyrrolo[3,4-c]pyridin-6-yl)piperazin-1-yl)ethyl)piperidin-1-yl)benzamide]	< 1	A (A >= 75)
CC1(C)[C@H](NC(=O)c2ccc(N3CCC(CCN4CCN(c5ncc6c(n5)C(=O)N(C5CCC(=O)NC5=O)C6=O)CC4)CC3)cc2)C(C)(C)[C@H]1Oc1ccc(C#N)c(Cl)c1 (mixture of isomers) [compound 52, (rac)-N-((1r,3r)-3-(3-chloro-4-cyanophenoxy)-2,2,4,4-tetramethylcyclobutyl)-4-(4-(2-(4-(6-(2,6-dioxopiperidin-3-yl)-5,7-dioxo-6,7-dihydro-5H-pyrrolo[3,4-d]pyrimidin-2-yl)piperazin-1-yl)ethyl)piperidin-1-yl)benzamide]	< 1	B (50 <= B < 75)
